Test results reported in ChEMBL document CHEMBL1201862, “PubChem BioAssay data set” (2004).
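Briefly, cells in 96-well plates were exposed to five compound concentrations for 48 h, and endpoints were estimated by linear interpolation. The concentration for 50% growth inhibition is given as GI50.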 Calls of active or inactive are those of the source. No stated cut-off is given here; in the data, active = GI50 up to about 1.1 µM and inactive = higher.

Assays:
Assay in all cases: NCI-60 cell line screen, 48 h
786-0 = system: 786-0
A498 = system: A498
A549 = system: A549
ACHN = system: ACHN
BT-549 = system: BT-549
COLO 205 = system: COLO 205
EKVX = system: EKVX
HCC 2998 = system: HCC 2998
HCT-116 = system: HCT-116
HCT-15 = system: HCT-15
HL-60 = system: HL-60
HOP-62 = system: HOP-62
HT-29 = system: HT-29
Hs-578T = system: Hs-578T
IGROV-1 = system: IGROV-1
K562 = system: K562
KM12 = system: KM12
LOX IMVI = system: LOX IMVI
M14 = system: M14
MCF7 = system: MCF7
MDA-MB-231 = system: MDA-MB-231
MDA-MB-435 = system: MDA-MB-435
MDA-N = system: MDA-N
MOLT-4 = system: MOLT-4
Malme-3M = system: Malme-3M
NCI-H23 = system: NCI-H23
NCI-H460 = system: NCI-H460
NCI-H522 = system: NCI-H522
NCI/ADR-RES = system: NCI/ADR-RES
OVCAR-3 = system: OVCAR-3
OVCAR-5 = system: OVCAR-5
OVCAR-8 = system: OVCAR-8
PC-3 = system: PC-3
RPMI-8226 = system: RPMI-8226
SF-295 = system: SF-295
SF-539 = system: SF-539
SK-MEL-28 = system: SK-MEL-28
SK-MEL-2 = system: SK-MEL-2
SK-MEL-5 = system: SK-MEL-5
SN12C = system: SN12C
SNB-19 = system: SNB-19
SR = system: SR
SW-620 = system: SW-620
T47D = system: T47D
TK-10 = system: TK-10
U-251 = system: U-251
UACC-257 = system: UACC-257
UACC-62 = system: UACC-62
UO-31 = system: UO-31
CAKI-1 = system: CAKI-1
CCRF-CEM = system: CCRF-CEM
DU-145 = system: DU-145
HOP-92 = system: HOP-92
NCI-H226 = system: NCI-H226
OVCAR-4 = system: OVCAR-4
RXF 393 = system: RXF 393
SF-268 = system: SF-268
SK-OV-3 = system: SK-OV-3
SNB-75 = system: SNB-75

COC1=CC2=NCCc3n[nH]c(c32)C1=O
GI50 (786-0): 18.5 µM (inactive) | GI50 (A498): 23.5 µM (inactive) | GI50 (A549): 24.3 µM (inactive) | GI50 (ACHN): 19.2 µM (inactive) | GI50 (BT-549): 16.9 µM (inactive) | GI50 (COLO 205): 17.7 µM (inactive) | GI50 (EKVX): 16.9 µM (inactive) | GI50 (HCC 2998): 47.1 µM (inactive) | GI50 (HCT-116): 13.7 µM (inactive) | GI50 (HCT-15): 46.3 µM | GI50 (HL-60): 0.0482 µM (active) | GI50 (HOP-62): 31.7 µM (inactive) | GI50 (HT-29): 13 µM (inactive) | GI50 (Hs-578T): 29.8 µM (inactive) | GI50 (IGROV-1): 19.1 µM (inactive) | GI50 (K562): 0.0545 µM (active) | GI50 (KM12): 28.1 µM (inactive) | GI50 (LOX IMVI): 2.35 µM (inactive) | GI50 (M14): 15 µM (inactive) | GI50 (MCF7): 4.86 µM (inactive) | GI50 (MDA-MB-231): 14.5 µM (inactive) | GI50 (MDA-MB-435): 11.5 µM (inactive) | GI50 (MDA-N): 10.9 µM (inactive) | GI50 (MOLT-4): 18.6 µM (inactive) | GI50 (Malme-3M): 16.3 µM (inactive) | GI50 (NCI-H23): 14.4 µM (inactive) | GI50 (NCI-H460): 27 µM (inactive) | GI50 (NCI-H522): 3.51 µM (inactive) | GI50 (NCI/ADR-RES): 29.1 µM (inactive) | GI50 (OVCAR-3): 15.9 µM (inactive) | GI50 (OVCAR-5): 18.5 µM (inactive) | GI50 (OVCAR-8): 15.2 µM (inactive) | GI50 (PC-3): 19.5 µM (inactive) | GI50 (RPMI-8226): 11.5 µM (inactive) | GI50 (SF-295): 28.1 µM (inactive) | GI50 (SF-539): 17.3 µM (inactive) | GI50 (SK-MEL-28): 18.1 µM (inactive) | GI50 (SK-MEL-2): 15.3 µM (inactive) | GI50 (SK-MEL-5): 18.3 µM (inactive) | GI50 (SN12C): 13.7 µM (inactive) | GI50 (SNB-19): 46 µM (inactive) | GI50 (SR): 13.4 µM (inactive) | GI50 (SW-620): 13.6 µM (inactive) | GI50 (T47D): 2.9 µM (inactive) | GI50 (TK-10): 22.1 µM (inactive) | GI50 (U-251): 16.7 µM (inactive) | GI50 (UACC-257): 15.6 µM (inactive) | GI50 (UACC-62): 14 µM (inactive) | GI50 (UO-31): 24.7 µM (inactive)

O=c1oc2ccc3ccccc3c2cc1-c1nc2ccccc2s1
GI50 (786-0): > 100 µM (inactive) | GI50 (A498): > 100 µM (inactive) | GI50 (A549): > 23.1 µM (inactive) | GI50 (ACHN): > 100 µM (inactive) | GI50 (BT-549): > 100 µM (inactive) | GI50 (CAKI-1): > 100 µM (inactive) | GI50 (CCRF-CEM): > 100 µM (inactive) | GI50 (COLO 205): > 100 µM (inactive) | GI50 (DU-145): > 100 µM (inactive) | GI50 (EKVX): > 100 µM (inactive) | GI50 (HCC 2998): > 100 µM (inactive) | GI50 (HCT-116): > 100 µM (inactive) | GI50 (HCT-15): > 100 µM | GI50 (HL-60): > 100 µM (inactive) | GI50 (HOP-62): > 100 µM (inactive) | GI50 (HOP-92): > 100 µM (inactive) | GI50 (HT-29): > 100 µM (inactive) | GI50 (Hs-578T): > 100 µM (inactive) | GI50 (IGROV-1): > 100 µM (inactive) | GI50 (K562): > 20.6 µM (inactive) | GI50 (KM12): > 100 µM (inactive) | GI50 (LOX IMVI): > 100 µM (inactive) | GI50 (M14): > 100 µM (inactive) | GI50 (MDA-MB-231): > 100 µM (inactive) | GI50 (MDA-MB-435): > 100 µM (inactive) | GI50 (MDA-N): > 100 µM (inactive) | GI50 (Malme-3M): > 100 µM (inactive) | GI50 (NCI-H226): > 100 µM (inactive) | GI50 (NCI-H23): > 100 µM (inactive) | GI50 (NCI-H460): > 100 µM (inactive) | GI50 (NCI-H522): > 100 µM (inactive) | GI50 (NCI/ADR-RES): > 100 µM (inactive) | GI50 (OVCAR-3): > 100 µM (inactive) | GI50 (OVCAR-4): > 100 µM (inactive) | GI50 (OVCAR-5): > 100 µM (inactive) | GI50 (OVCAR-8): > 100 µM (inactive) | GI50 (PC-3): > 100 µM (inactive) | GI50 (RXF 393): > 100 µM (inactive) | GI50 (SF-268): > 100 µM (inactive) | GI50 (SF-295): > 100 µM (inactive) | GI50 (SF-539): > 100 µM (inactive) | GI50 (SK-MEL-28): > 100 µM (inactive) | GI50 (SK-MEL-2): > 100 µM (inactive) | GI50 (SK-MEL-5): > 100 µM (inactive) | GI50 (SK-OV-3): > 100 µM (inactive) | GI50 (SN12C): > 100 µM (inactive) | GI50 (SNB-75): > 100 µM (inactive) | GI50 (SW-620): > 100 µM (inactive) | GI50 (T47D): > 66.7 µM (inactive) | GI50 (TK-10): > 100 µM (inactive) | GI50 (U-251): > 100 µM (inactive) | GI50 (UACC-257): > 100 µM (inactive) | GI50 (UACC-62): > 100 µM (inactive) | GI50 (UO-31): > 100 µM (inactive)

COc1ccc(C(SC2C(O)C(CO)OC2n2ccc(=O)[nH]c2=O)(c2ccccc2)c2ccc(OC)cc2)cc1 (stereo not given)
GI50 (786-0): 16.3 µM (inactive) | GI50 (A549): 16.4 µM (inactive) | GI50 (ACHN): 29 µM (inactive) | GI50 (BT-549): 16.6 µM (inactive) | GI50 (CAKI-1): 30.4 µM (inactive) | GI50 (CCRF-CEM): 23.8 µM (inactive) | GI50 (COLO 205): 17.7 µM (inactive) | GI50 (DU-145): 18.4 µM (inactive) | GI50 (EKVX): 17.1 µM (inactive) | GI50 (HCC 2998): 14.8 µM (inactive) | GI50 (HCT-116): 14.7 µM (inactive) | GI50 (HCT-15): 15.5 µM | GI50 (HL-60): 25.6 µM (inactive) | GI50 (HOP-62): 17.9 µM (inactive) | GI50 (HOP-92): 15.6 µM (inactive) | GI50 (HT-29): 17.6 µM (inactive) | GI50 (Hs-578T): 20.9 µM (inactive) | GI50 (IGROV-1): 17.7 µM (inactive) | GI50 (K562): 31.6 µM (inactive) | GI50 (KM12): 15.8 µM (inactive) | GI50 (LOX IMVI): 16.9 µM (inactive) | GI50 (M14): 11.3 µM (inactive) | GI50 (MCF7): 17.1 µM (inactive) | GI50 (MDA-MB-231): 16.1 µM (inactive) | GI50 (MDA-MB-435): 9.1 µM (inactive) | GI50 (MDA-N): 9.66 µM (inactive) | GI50 (MOLT-4): 26.9 µM (inactive) | GI50 (Malme-3M): 20.7 µM (inactive) | GI50 (NCI-H226): 16.6 µM (inactive) | GI50 (NCI-H23): 17.7 µM (inactive) | GI50 (NCI-H460): 10.9 µM (inactive) | GI50 (NCI-H522): 14.7 µM (inactive) | GI50 (NCI/ADR-RES): 18.9 µM (inactive) | GI50 (OVCAR-3): 17.6 µM (inactive) | GI50 (OVCAR-4): 19.7 µM (inactive) | GI50 (OVCAR-5): 18.4 µM (inactive) | GI50 (OVCAR-8): 19.1 µM (inactive) | GI50 (PC-3): 14.9 µM (inactive) | GI50 (RPMI-8226): 32.8 µM (inactive) | GI50 (RXF 393): 18.1 µM (inactive) | GI50 (SF-268): 17.9 µM (inactive) | GI50 (SF-295): 7.57 µM (inactive) | GI50 (SF-539): 22 µM (inactive) | GI50 (SK-MEL-28): 21.8 µM (inactive) | GI50 (SK-MEL-2): 15.1 µM (inactive) | GI50 (SK-MEL-5): 14.7 µM (inactive) | GI50 (SK-OV-3): 13.7 µM (inactive) | GI50 (SN12C): 14.4 µM (inactive) | GI50 (SNB-19): 12.4 µM (inactive) | GI50 (SNB-75): 18.5 µM (inactive) | GI50 (SW-620): 22.2 µM (inactive) | GI50 (T47D): 16.6 µM (inactive) | GI50 (TK-10): 25.4 µM (inactive) | GI50 (U-251): 13.9 µM (inactive) | GI50 (UACC-257): 16.1 µM (inactive) | GI50 (UACC-62): 15.9 µM (inactive) | GI50 (UO-31): 16.6 µM (inactive)
